Laboratory results as given in patent US7652153B2, “Caspase inhibitors and uses thereof” (Vertex Pharmaceuticals Incorporated, priority 2004, dated 2010).

Legend:
caspase-8 = caspase-8 (Homo sapiens, UniProt Q14790); experiment: Caspase-8 enzyme inhibition (Ki, method of Margolin et al.); assay type: biochemical; conditions: Ac-DEVD-pNA substrate 80 μM, 37° C., pH 7.5; read-out: Ki C8
In short: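 Caspase (0.5-40 nM active, by active-site titration) preincubated with inhibitor 15 min at 37° C in 10 mM Tris pH 7.5, 1 mM DTT, 0.1% CHAPS. Reaction started with Ac-DEVD-pNA (80 μM final), rate followed by absorbance at 405 nm; Ki from Morrison tight-binding fit for competitive inhibitors.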

caspase-1 = target: T1, caspase-1 (Homo sapiens, UniProt P29466); experiment: Caspase-1 enzyme inhibition (Ki, method of Margolin et al.); assay type: biochemical; conditions: Suc-YVAD-pNA substrate 80 μM, 37° C., pH 7.5; read-out: Ki C1
T1 sequence (P29466 120-297 limits assumed): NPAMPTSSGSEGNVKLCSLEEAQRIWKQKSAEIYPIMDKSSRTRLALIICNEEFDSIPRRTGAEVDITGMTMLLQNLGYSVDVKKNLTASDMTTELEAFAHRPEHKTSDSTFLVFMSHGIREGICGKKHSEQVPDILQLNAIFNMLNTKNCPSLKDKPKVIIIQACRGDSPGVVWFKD
T1 sequence (P29466 317-404 limits assumed): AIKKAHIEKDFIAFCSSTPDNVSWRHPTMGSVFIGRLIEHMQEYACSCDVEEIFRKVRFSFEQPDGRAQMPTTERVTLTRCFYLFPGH
In short: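 Enzyme (0.5-40 nM active, by active-site titration) preincubated 15 min at 37° C with inhibitor in 10 mM Tris pH 7.5, 1 mM DTT, 0.1% CHAPS. Reaction started with Suc-YVAD-pNA (80 μM final), rate followed by absorbance at 405 nm at 37° C. Ki from Morrison tight-binding fit for competitive inhibitors.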

Sequence of caspase-8 (Q14790 217-374 limits assumed, species assumed): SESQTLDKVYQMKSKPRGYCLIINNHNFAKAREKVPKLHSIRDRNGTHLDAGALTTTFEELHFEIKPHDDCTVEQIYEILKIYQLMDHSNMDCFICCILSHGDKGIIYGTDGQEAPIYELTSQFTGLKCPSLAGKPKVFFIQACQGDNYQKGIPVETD
Sequence of caspase-8 (Q14790 385-479 limits assumed, species assumed): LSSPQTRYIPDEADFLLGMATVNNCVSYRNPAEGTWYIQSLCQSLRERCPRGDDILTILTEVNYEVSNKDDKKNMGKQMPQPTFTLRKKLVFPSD

Ki (caspase-8) | Ki (caspase-1) | SMILES
10 to 20 nM | < 10 nM | COc1ccc(C(=O)N[C@H](C(=O)N2CCC[C@H]2C(=O)N[C@H](C=O)CC(=O)O)C(C)C)c(Cl)c1 [II-37, (S,S,S)-(3S)-({1-[(2S)-(2-chloro-4-methoxy-benzoylamino)-3-methyl-butyryl]-pyrrolidine-(2S)-carbonyl}-amino)-4-oxo-butyric acid]
< 10 nM | < 10 nM | Cc1ccccc1C(=O)N[C@H](C(=O)N1CCC[C@H]1C(=O)N[C@H](C=O)CC(=O)O)C(C)(C)C [II-26, (S,S,S)-(3S)-({1-[3,3-Dimethyl-(2S)-(2-methyl-benzoylamino)-butyryl]-pyrrolidine-(2S)-carbonyl}-amino)-4-oxo-butyric acid]
21 to 30 nM | < 10 nM | COc1cccc(C(=O)N[C@@H](CC(F)(F)F)C(=O)N2CCC[C@H]2C(=O)N[C@H](C=O)CC(=O)O)c1C [II-21, (S,S,S)-4-Oxo-(3S)-({1-[4,4,4-trifluoro-(2S)-(2-methyl-3-methoxy-benzoylamino)-butyryl]-pyrrolidine-(2S)-carbonyl}-amino)-butyric acid]
< 10 nM | < 10 nM | CC(C)(C)[C@H](NC(=O)c1cccc(Oc2ccccc2)c1Cl)C(=O)N1CCC[C@H]1C(=O)N[C@H](C=O)CC(=O)O [II-52, (S,S,S)-(3S)-({1-[(2S)-(2-chloro-3-phenoxy-benzoylamino)-3,3-dimethyl-butyryl]-pyrrolidine-(2S)-carbonyl}-amino)-4-oxo-butyric acid]
10 to 20 nM | < 10 nM | CC(C)[C@H](NC(=O)c1cccc(C(F)(F)F)c1Cl)C(=O)N1CCC[C@H]1C(=O)N[C@H](C=O)CC(=O)O [II-9, (S,S,S)-(3S)-({1-[(2S)-(2-Chloro-3-trifluoromethyl-benzoylamino)-3-methyl-butyryl]-pyrrolidine-(2S)-carbonyl}-amino)-4-oxo-butyric acid]
21 to 30 nM | < 10 nM | CC(=O)Nc1ccc(C(=O)N[C@H](C(=O)N2CCC[C@H]2C(=O)N[C@H](C=O)CC(=O)O)C2CCCCC2)c(Cl)c1 [II-50, (S,S,S)-(3S)-({1-[(2S)-(2-chloro-4-acetamido-benzoylamino)-3-cyclohexyl]-pyrrolidine-(2S)-carbonyl}-amino)-4-oxo-butyric acid]
10 to 20 nM | < 10 nM | COc1ccccc1C(=O)N[C@H](C(=O)N1CCC[C@H]1C(=O)N[C@H](C=O)CC(=O)O)C(C)C [II-4, (S,S,S)-(3S)-({1-[(2S)-(2-methoxy-benzoylamino)-3-methyl-butyryl]-pyrrolidine-(2S)-carbonyl}-amino)-4-oxo-butyric acid]
< 10 nM | < 10 nM | COc1cccc(C(=O)N[C@H](C(=O)N2CCC[C@H]2C(=O)N[C@H](C=O)CC(=O)O)C(C)(C)C)c1F [II-31, (S,S,S)-(3S)-({1-[(2S)-(2-Fluoro-3-methoxy-benzoylamino)-3,3-dimethyl-butyryl]-pyrrolidine-(2S)-carbonyl}-amino)-4-oxo-butyric acid]
< 10 nM | < 10 nM | Cc1cccc(C(=O)N[C@H](C(=O)N2CCC[C@H]2C(=O)N[C@H](C=O)CC(=O)O)C(C)(C)C)c1Cl [II-34, (S,S,S)-(3S)-({1-[(2S)-(2-Chloro-3-methyl-benzoylamino)-3,3-dimethyl-butyryl]-pyrrolidine-(2S)-carbonyl}-amino)-4-oxo-butyric acid]
21 to 30 nM | < 10 nM | CC(C)[C@H](NC(=O)c1c(N)cccc1Cl)C(=O)N1CCC[C@H]1C(=O)N[C@H](C=O)CC(=O)O [II-53, (S,S,S)-(3S)-({1-[(2S)-(2-chloro-6-amino-benzoylamino)-3-methyl-butyryl]-pyrrolidine-(2S)-carbonyl}-amino)-4-oxo-butyric acid]
< 10 nM | < 10 nM | COC(=O)Nc1ccc(C(=O)N[C@H](C(=O)N2CCC[C@H]2C(=O)N[C@H](C=O)CC(=O)O)C(C)(C)C)c(Cl)c1 [II-51, (S,S,S)-(3S)-({1-[(2S)-(2-chloro-4-methoxycarbonylamino-benzoylamino)-3,3-dimethyl-butyryl]-pyrrolidine-(2S)-carbonyl}-amino)-4-oxo-butyric acid]
< 10 nM | < 10 nM | COc1cccc(C(=O)N[C@H](C(=O)N2CCC[C@H]2C(=O)N[C@H](C=O)CC(=O)O)C(C)(C)C)c1C [II-20, (S,S,S)-(3S)-({1-[(2S)-(3-Methoxy-2-methyl-benzoylamino)-3,3-dimethyl-butyryl]-pyrrolidine-(2S)-carbonyl}-amino)-4-oxo-butyric acid]
